These results are taken from US20240327786A1, “NON-MAMMALIAN AQUATIC ANIMAL CELLS AND EXTRACTS” (Shah Caviar Limited, priority 2021, published 2024).

The subject of the assay is sturgeon suspension cells. The experiment in a line: Proliferation of sturgeon suspension cells treated with epigenetic modifiers (cell counts, Neubauer chamber). As to conditions: exposed once per week.

Regarding `CCCC(=O)O` [butyric acid], the “proliferation compared to the standard culture” value is on record as “increase in proliferation”. The compound further yielded an expansion factor (within 4 weeks, 1 μM, 10 μM, 50 μM, 100 μM and 500 μM) of 16.

Consider `CCCC(CCC)C(=O)O` [valproic acid], for which the “proliferation compared to the standard culture” value is “increase in proliferation”. Also, where the note is “within 6 weeks, 30 μM, 100 μM, 300 μM, 1 mM and 3 mM”, the expansion factor came to 8.
